From PubChem BioAssay (NCI)
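Interpolation was linear, between the two tested concentrations surrounding the appropriate level; five concentrations were tested over 48 hours in 96-well plates. GI50 is the concentration that inhibits growth by half. At the TGI there is no net growth.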

Columns and labels:
Assay in all cases: growth of human tumour cells (NCI), 48 h
[1] = system: XF 498 CNS
[2] = system: MCF7 breast
[3] = system: RXF 393 renal
[4] = system: DMS 273 small cell lung
[5] = system: RPMI-8226 leukemia
[6] = system: SF-268 CNS
[7] = system: HL-60(TB) leukemia
[8] = system: CCRF-CEM leukemia
[9] = system: HCT-116 colon
[10] = system: NCI-H226 lung
[11] = system: DU-145 prostate
[12] = system: MDA-MB-231 breast
[13] = system: PC-3 prostate

Row | SMILES | TGI [1] [µM] | TGI [2] [µM] | TGI [3] [µM] | TGI [4] [µM] | TGI [5] [µM] | TGI [6] [µM] | TGI [7] [µM] | TGI [8] [µM] | TGI [9] [µM] | TGI [10] [µM] | TGI [11] [µM] | TGI [12] [µM] | TGI [13] [µM] | GI50 [11] [µM] | GI50 [2] [µM] | GI50 [3] [µM] | GI50 [12] [µM] | GI50 [7] [µM] | GI50 [13] [µM]
1 | CC1NC(=O)C(C)C(c2ccccc2)N(N=O)C1c1ccccc1 (stereo not drawn) | > 100 | > 100 | > 100 | > 100 | > 100 | > 100 | 61.5 | > 100 | > 100 | > 100 |  |  |  |  |  |  |  |  | 
2 | O=C(CC1Sc2ccccc2NC1=O)Nc1ccccc1[N+](=O)[O-] (stereo not drawn) | > 100 |  | > 100 | > 100 | > 100 | > 100 | > 100 | > 100 | > 100 | > 100 |  |  |  |  |  |  |  |  | 
3 | CO[C@](C(=O)OC[C@H]1[C@@H](COC(C)=O)[C@@H]2O[C@H]1c1cc3c(cc12)OCO3)(c1ccccc1)C(F)(F)F |  |  |  |  | 38.7 | 77.1 |  | > 100 | > 100 |  | > 100 | > 100 | > 100 |  |  |  |  |  | 
4 | CCOC(=O)c1csc(NC(=O)CN2CCCC2)n1 |  | > 100 | > 100 |  | > 100 | > 100 | > 100 | > 100 |  | > 100 | > 100 | > 100 | > 100 |  |  |  |  |  | 
5 | CCCCCCOc1ccc(/C=N/Nc2cc(C)nc3ccc(Cl)cc23)cc1 |  | 3.2 | 2.97 |  |  |  | 3.38 |  |  |  | 3.57 | 3.24 | 3.21 | 1.86 | 1.47 | 1.56 | 1.67 | 1.39 | 1.57
6 | Cc1ccc(C(=O)OC(C(=O)O)C(OC(=O)c2ccc(C)cc2)C(=O)O)cc1 (stereo not drawn) (tested in a mixture with another compound) | 10.2 | 11.8 | 16 | 10.7 | 9.23 | 28.3 | 4.08 | 17 | 13.8 | 24.8 |  |  |  |  |  |  |  |  | 
